These results are taken from ChEMBL document CHEMBL3046411, “Synthesis and antioxidant studies of novel N-substituted benzyl/phenyl-2-(3,4-dimethyl-5,5-dioxidopyrazolo[4,3-c][1,2]benzothiazin-2(4H)-yl)acetamides” (Med Chem Res, 2013).

A short description of assay [1]: Antioxidant activity assessed as superoxide anion radical scavenging activity at 1 mM. It counts as functional.
In assay [2] the test system is Radical scavenging activity. Put plainly: Antioxidant activity assessed as DPPH radical scavenging activity at 0.5 mM after 30 min. The class given is functional. (In general: The DPPH test is a chemical assay of radical scavenging.)

Consider `Cc1c2c(nn1CC(=O)NCc1ccccc1Br)-c1ccccc1S(=O)(=O)N2C`, for which the Activity in assay [1] amounted to 64%; in assay [2], 21.1%.

Regarding `Cc1ccc(CNC(=O)Cn2nc3c(c2C)N(C)S(=O)(=O)c2ccccc2-3)cc1`, the Activity turned out to be 57.8% in assay [1] and 17.9% in assay [2].

Consider `Cc1c2c(nn1CC(=O)Nc1ccccc1Br)-c1ccccc1S(=O)(=O)N2C`, for which the Activity in assay [1] worked out at 79.1%; in assay [2], 27.6%.

As for `COc1ccc(CNC(=O)Cn2nc3c(c2C)N(C)S(=O)(=O)c2ccccc2-3)cc1`, the Activity in assay [1] stood at 33.1%; in assay [2] it was 23.7%.

`Cc1c2c(nn1CC(=O)Nc1ccccc1)-c1ccccc1S(=O)(=O)N2C`: the Activity in assay [1] amounted to 28.6%; in assay [2], 18.3%.

Consider `COc1ccc(NC(=O)Cn2nc3c(c2C)N(C)S(=O)(=O)c2ccccc2-3)c(OC)c1`, for which the Activity in assay [1] turned out to be 78.3%; in assay [2] it was 39.8%.

For `Cc1c2c(nn1CC(=O)Nc1ccccc1F)-c1ccccc1S(=O)(=O)N2C`, the Activity turned out to be 47.7% in assay [1] and 23.1% in assay [2].

`Cc1c2c(nn1CC(=O)Nc1ccc(Cl)cc1)-c1ccccc1S(=O)(=O)N2C`: the values for the Activity in assay [1] and in assay [2] were 55.6% and 25.4%, respectively.

For the compound `COc1cccc(NC(=O)Cn2nc3c(c2C)N(C)S(=O)(=O)c2ccccc2-3)c1`, the values for the Activity in assay [1] and in assay [2] were 47.4% and 20.2%, respectively.

As for `Cc1c2c(nn1CC(=O)NCc1ccccc1F)-c1ccccc1S(=O)(=O)N2C`, the figures for the Activity in assay [1] and in assay [2] were 48.5% and 20.2%, respectively.

For the compound `COc1ccccc1CNC(=O)Cn1nc2c(c1C)N(C)S(=O)(=O)c1ccccc1-2`, the Activity came to 38.8% in assay [1] and 25.6% in assay [2].

For `Cc1c2c(nn1CC(=O)NCc1cccc(Br)c1)-c1ccccc1S(=O)(=O)N2C`, the Activity in assay [1] was 32.5%; in assay [2], 14.1%.

As to `Cc1c2c(nn1CC(=O)NCc1ccc(F)cc1)-c1ccccc1S(=O)(=O)N2C`, the Activity in assay [1] came out at 42.3%; in assay [2], 15.8%.

As for `Cc1c2c(nn1CC(=O)Nc1cccc(Br)c1)-c1ccccc1S(=O)(=O)N2C`, the figures for the Activity in assay [1] and in assay [2] were 47.1% and 26.1%, respectively.

As for `COc1ccc(CNC(=O)Cn2nc3c(c2C)N(C)S(=O)(=O)c2ccccc2-3)c(OC)c1`, the Activity in assay [1] amounted to 58.3%; in assay [2], 27.3%.

`Cc1c2c(nn1CC(=O)Nc1ccccc1Cl)-c1ccccc1S(=O)(=O)N2C`: the Activity was found to be 61% in assay [1] and 21.8% in assay [2].

With `Cc1c2c(nn1CC(=O)NCc1ccccc1Cl)-c1ccccc1S(=O)(=O)N2C`, the Activity in assay [1] came to 52.5%; in assay [2], 17.1%.

`CCCOC(=O)c1cc(O)c(O)c(O)c1`: the Activity in assay [1] was 90.8%.

For `COc1ccc(O)c(C(C)(C)C)c1.COc1ccc(O)cc1C(C)(C)C`, in assay [2], the Activity was 92.6%.

For `Cc1c2c(nn1CC(=O)NCc1ccc(Cl)cc1)-c1ccccc1S(=O)(=O)N2C`, the Activity was 47.2% in assay [1] and 16.7% in assay [2].

Take `Cc1ccccc1CNC(=O)Cn1nc2c(c1C)N(C)S(=O)(=O)c1ccccc1-2`: the figures for the Activity in assay [1] and in assay [2] were 81.5% and 15.2%, respectively.

Regarding `Cc1c2c(nn1CC(=O)Nc1ccc(F)cc1)-c1ccccc1S(=O)(=O)N2C`, the Activity in assay [1] stood at 44.1%; in assay [2], 22.1%.

With `COc1cccc(CNC(=O)Cn2nc3c(c2C)N(C)S(=O)(=O)c2ccccc2-3)c1`, the values for the Activity in assay [1] and in assay [2] were 25.9% and 16.2%, respectively.

Turning to `COc1ccccc1NC(=O)Cn1nc2c(c1C)N(C)S(=O)(=O)c1ccccc1-2`, the Activity in assay [1] was determined as 53.8%; in assay [2], 26.9%.
